From the supplement of paper PMC10883282

Experiments:
Test in all cases: relative viability vs DMSO control (72 h) (fraction); higher = more viable cells
MES-SA = system: MES-SA
In short: (§1)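 Sarcoma cell lines went into 384-well plates at densities chosen to reach 80–90% confluence. After 24 h, each well received 2.5 µl of serially diluted compound, with source plates running from 10 mM to 0.0002 mM, and the plates were kept 72 h at 37 °C, 5% CO2, alongside 0.1% DMSO vehicle and a 5 µM positive control. Relative viability was derived from ATPLite readings as percent growth and averaged over up to triplicate wells. The data were then rescaled so that 1 stands for full and 0 for none.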

SK-LMS-1 = system: SK-LMS-1
In short: as §1

SK-ES-1 = system: SK-ES-1
In short: as §1

SYO-1 = system: SYO-1
In short: as §1

SW1353 = system: SW1353
In short: as §1

RD-ES = system: RD-ES
In short: as §1

VA-ES-BJ = system: VA-ES-BJ
In short: as §1

HT1080 = system: HT1080
In short: as §1

RD = system: RD
In short: as §1

KHOS-240S = system: KHOS-240S
In short: as §1

SW982 = system: SW982
In short: as §1

G401 = system: G401
In short: as §1

CC(C)(O)CNc1nc(Nc2ccnc(C(F)(F)F)c2)nc(-c2cccc(C(F)(F)F)n2)n1 [Enasidenib]
Conditions	relative viability
G401, 0.00017 µM	0.984
G401, 0.00051 µM	0.973
G401, 0.00152 µM	0.984
G401, 0.00457 µM	1.03
G401, 0.01372 µM	1.025
G401, 0.04115 µM	1.01
G401, 0.1235 µM	1.05
G401, 0.3704 µM	1.02
G401, 1.111 µM	0.98
G401, 3.333 µM	0.994
G401, 10 µM	0.958
HT1080, 0.00017 µM	1.07
HT1080, 0.00051 µM	1.076
HT1080, 0.00152 µM	1.08
HT1080, 0.00457 µM	1.07
HT1080, 0.01372 µM	1.042
HT1080, 0.04115 µM	1.064
HT1080, 0.1235 µM	1.05
HT1080, 0.3704 µM	1.1
HT1080, 1.111 µM	1.16
HT1080, 3.333 µM	1.11
HT1080, 10 µM	0.978
KHOS-240S, 0.00017 µM	1.08
KHOS-240S, 0.00051 µM	1.06
KHOS-240S, 0.00152 µM	1.053
KHOS-240S, 0.00457 µM	1.06
KHOS-240S, 0.01372 µM	1.08
KHOS-240S, 0.04115 µM	1.073
KHOS-240S, 0.1235 µM	1.09
KHOS-240S, 0.3704 µM	1.09
KHOS-240S, 1.111 µM	1.09
KHOS-240S, 3.333 µM	1.081
KHOS-240S, 10 µM	0.989
MES-SA, 0.00017 µM	0.911
MES-SA, 0.00051 µM	0.947
MES-SA, 0.00152 µM	0.958
MES-SA, 0.00457 µM	0.956
MES-SA, 0.01372 µM	0.9539
MES-SA, 0.04115 µM	0.932
MES-SA, 0.1235 µM	0.9612
MES-SA, 0.3704 µM	0.945
MES-SA, 1.111 µM	0.926
MES-SA, 3.333 µM	0.918
MES-SA, 10 µM	0.808
RD, 0.00017 µM	1.11
RD, 0.00051 µM	1.125
RD, 0.00152 µM	1.11
RD, 0.00457 µM	1.08
RD, 0.01372 µM	1.1
RD, 0.04115 µM	1.1
RD, 0.1235 µM	1.11
RD, 0.3704 µM	1.08
RD, 1.111 µM	1.09
RD, 3.333 µM	1.09
RD, 10 µM	1.04
RD-ES, 0.00017 µM	0.965
RD-ES, 0.00051 µM	1
RD-ES, 0.00152 µM	1.02
RD-ES, 0.00457 µM	1.01
RD-ES, 0.01372 µM	1.012
RD-ES, 0.04115 µM	0.9861
RD-ES, 0.1235 µM	1.01
RD-ES, 0.3704 µM	1.02
RD-ES, 1.111 µM	1.01
RD-ES, 3.333 µM	1.02
RD-ES, 10 µM	1
SK-ES-1, 0.00017 µM	1.02
SK-ES-1, 0.00051 µM	1.04
SK-ES-1, 0.00152 µM	1.03
SK-ES-1, 0.00457 µM	1.04
SK-ES-1, 0.01372 µM	1.02
SK-ES-1, 0.04115 µM	0.996
SK-ES-1, 0.1235 µM	1.02
SK-ES-1, 0.3704 µM	0.968
SK-ES-1, 1.111 µM	0.921
SK-ES-1, 3.333 µM	0.893
SK-ES-1, 10 µM	0.663
SK-LMS-1, 0.00017 µM	1.03
SK-LMS-1, 0.00051 µM	0.979
SK-LMS-1, 0.00152 µM	1.01
SK-LMS-1, 0.00457 µM	1.02
SK-LMS-1, 0.01372 µM	1.01
SK-LMS-1, 0.04115 µM	1.01
SK-LMS-1, 0.1235 µM	1.02
SK-LMS-1, 0.3704 µM	1.06
SK-LMS-1, 1.111 µM	1.13
SK-LMS-1, 3.333 µM	1.11
SK-LMS-1, 10 µM	0.83
SW982, 0.00017 µM	1.04
SW982, 0.00051 µM	1.04
SW982, 0.00152 µM	1.05
SW982, 0.00457 µM	1.06
SW982, 0.01372 µM	1.05
SW982, 0.04115 µM	1.06
SW982, 0.1235 µM	1.06
SW982, 0.3704 µM	1.102
SW982, 1.111 µM	1.129
SW982, 3.333 µM	1.18
SW982, 10 µM	1.22
SW1353, 0.00017 µM	0.997
SW1353, 0.00051 µM	1.03
SW1353, 0.00152 µM	0.99
SW1353, 0.00457 µM	1.02
SW1353, 0.01372 µM	1.03
SW1353, 0.04115 µM	1.01
SW1353, 0.1235 µM	1.01
SW1353, 0.3704 µM	1.04
SW1353, 1.111 µM	0.9847
SW1353, 3.333 µM	0.994
SW1353, 10 µM	0.86
SYO-1, 0.00017 µM	0.969
SYO-1, 0.00051 µM	0.959
SYO-1, 0.00152 µM	0.987
SYO-1, 0.00457 µM	0.982
SYO-1, 0.01372 µM	0.973
SYO-1, 0.04115 µM	0.992
SYO-1, 0.1235 µM	0.996
SYO-1, 0.3704 µM	0.979
SYO-1, 1.111 µM	0.624
SYO-1, 3.333 µM	0.968
SYO-1, 10 µM	0.828
VA-ES-BJ, 0.00017 µM	1.04
VA-ES-BJ, 0.00051 µM	1.06
VA-ES-BJ, 0.00152 µM	1.05
VA-ES-BJ, 0.00457 µM	1.03
VA-ES-BJ, 0.01372 µM	1.06
VA-ES-BJ, 0.04115 µM	1.05
VA-ES-BJ, 0.1235 µM	1.06
VA-ES-BJ, 0.3704 µM	1.07
VA-ES-BJ, 1.111 µM	1.05
VA-ES-BJ, 3.333 µM	1.02
VA-ES-BJ, 10 µM	0.976
